Test results published in patent US20260232835A1, “AFFIBODY MICELLE DRUG CONJUGATE” (KOWA COMPANY, LTD., priority 2022, published 2026).

Legend:
[1] = test system: HER2 antigen-positive human cancer cell line HCC-1954; experiment: Cytotoxic test (CellTiter-Glo cell viability), HCC-1954; format: cell-based; settings: cultured for 4 days
Description: (§1) The mertansine (DM1) (Cayman CHEMICAL) was dissolved in dimethyl sulfoxide (DMSO: FUJIFILM Wako Pure Chemical Corporation) to prepare DM1 solutions of 60 μmol/L, 20 μmol/L, 6.7 μmol/L, 2.2 μmol/L, 0.74 μmol/L, 0.25 μmol/L, 0.082 μmol/L, and 0.027 μmol/L. Next, after a dilution series of 60 nmol/L, 20 nmol/L, 6.7 nmol/L, 2.2 nmol/L, 0.74 nmol/L, 0.25 nmol/L, 0.082 nmol/L, and 0.027 nmol/L were created by respectively diluting these solutions with RPMI1640 (hereinafter, RPMI1640 medium) containing 10% fetal bovine serum (Merck KGaA), these solutions were respectively added to a cell culture microplate in equal amounts to a cell culture liquid, and diluted to 1/2, thereby evaluating the cytotoxic effects thereof at a final DM1 concentration of 30 nmol/L, 10 nmol/L, 3.3 nmol/L, 1.1 nmol/L, 0.37 nmol/L, 0.12 nmol/L, 0.041 nmol/L, or 0.014 nmol/L.
(§2) A HER2 antigen-positive human gastric cancer cell line HCC-1954 (American Type Culture Collection) or a HER2 antigen-negative human breast cancer cell line MDA-MB-468 (American Type Culture Collection) was adjusted to a cell concentration of 2.0×10^4 cells/mL with the RPMI1640 medium, and 100 μL each was added to the 96 well microplate for cell culture and cultured overnight. […] The light emission amount was then measured with the plate reader (Molecular Devices, LLC.). The cell viability was calculated by the following equation. […]

[2] = test system: human breast cancer cell line MDA-MB-468; experiment: Cytotoxic test (CellTiter-Glo cell viability), MDA-MB-468; format: cell-based; settings: Table 8, cultured for 4 days, read-out: IC50 HER2-negative MDA-MB-468
Description: as §1, §2

[3] = test system: mouse colon cancer cell line C26; experiment: Drug efficacy test in cancer-carrying nude mice with subcutaneously transplanted C26; format: in vivo; settings: after 14 days from administration; tail vein, 3 times every other day; DACHPt-encapsulating SCNP 3 mg/kg in terms of Pt, oxaliplatin solution 8 mg/kg (3.9 mg/kg in terms of Pt)
Description: Cancer-carrying models obtained by subcutaneously transplanting a mouse colon cancer cell line C26 (American Type Culture Collection) into female nude mice (BALB/c-nu/nu, 7 weeks old; Charles River Laboratories Japan, Inc.) were used for the drug efficacy test.
The mouse colon cancer cell line C26 subcultured in a CO2 incubator was suspended in a liquid medium (Dulbecco's Modified Eagle's Medium-high glucose, Sigma-Aldrich), and injected subcutaneously in the back of each of the nude mice such that the number of cells per mouse was 1×106/100 μL. Then, the nude mice were raised for about 1 week, and then administration of the agent was started when an average value of tumor volumes was grown to about 30 mm^3. The DACHPt-encapsulating SCNP (DACHPt-encapsulating SCNP prepared using the copolymer of Example 70) was administered through the tail veins of the mice (3 times every other day), and antitumor effects were evaluated based on the tumor volumes (4 to 5 mice per 1 group). As a comparison, an oxaliplatin solution (Comparative Example 1) was used, and the oxaliplatin solution was administered in the same manner. The dose of each preparation was 8 mg/kg (3.9 mg/kg in terms of Pt) as the maximum administrable dose for the oxaliplatin solution, and 3 mg/kg in terms of Pt for the DACHPt-encapsulating SCNP. […]

Compound | IC50 [1] | IC50 [2] | T/C: ratio of the tumor volume of the drug administration group (T) to that of the control group (C) [3]
COc1cc2cc(c1Cl)N(C)C(=O)C[C@H](OC(=O)[C@H](C)N(C)C(=O)CCS)[C@]1(C)O[C@H]1[C@H](C)[C@@H]1C[C@@](O)(NC(=O)O1)[C@H](OC)/C=C/C=C(\C)C2 [Comparative example 2, mertansine, reference compound] | 0.11 nM | 0.41 nM | –
O=C1[O][Pt]2([NH][C@@H]3CCCC[C@H]3[NH]2)[O]C1=O [oxaliplatin solution, oxaliplatin] | – | – | 1.1
